Experimental data taken from patent publication US4092426A, “Novel aminobenzoic acid derivatives, process for preparing the same and pharmaceutical composition containing the same” (Chugai Seiyaku Kabushiki Kaisha, priority 1975, dated 1978).
Where a name gives a salt, the structure may show the parent alone.

What was measured:
Adjuvant arthritis = assay: Activity for Treating Adjuvant Arthritis (hind paw volume); type: in vivo, Sprague Dawley strain male rats
Procedure: Sprague Dawley strain male rats (eight week old) were used as test animals. […] Seventeen days after the sensitization, degree of swelling of hind pawls of each rat was determined by measuring the volume of its hind paws and the rats were divided into groups of 10 members each so that average degree of swelling for each of the groups was approximately equal. Each group of rats was orally administered with the test compound, disodium salt of N-2'-carboxyphenyl-4-chloroanthranilic acid, in a dose as shown in Table 5 once a day for a week starting on the seventeenth day after the sensitization. Degree of swelling of hind paws of each rat was measured every second or third day after the completion of the administration of the test compound till the 31st day from the sensitization. The reduction in volume of the hind paws was used as an index to evaluate the pharmacological activity.
The results of the statistical test which was made on the values obtained on the 24th and 31st days from the sensitization are shown in Table 5.

[1] = tested on: plaque forming cells (PFC) in the spleen; assay: Activity for Recovering Immune Depletion by cortisone: plaque forming cells (PFC) in the spleen; type: in vivo, IV CS strain male mice; conditions: 10 mg/kg oral, cortisone-treated
Procedure: (§1) As test animals, IV CS strain male mice (5 week old) were used by dividing them into groups of 5 members each. Each mouse was intraperitoneally administered with cortisone in a dose of 60 mg/kg once a day for 5 days. Three days after the first administration, the sensitization with an antigen, sheep red blood cell (SRBC), was made by injecting the antigen into the mouse through the tail vein. Each mouse was orally administered with the test compound, disodium salt of N-2'-carboxyphenyl-4-chloroanthranilic acid, a day after the sensitization. Five days after the sensitization, the number of plaque forming cells (PFC) in the spleen was measured in a usual manner.

triglyceride in liver = assay: Action for decreasing triglyceride in liver (ethanol-induced); type: in vivo, Sprague Dawley strain female rats; conditions: rat, oral 100 mg/kg, 30 min before ethanol 6 g/kg; 24 h; 100 mg/kg
Procedure: Sprague Dawley strain female rats each weighing 170 - 200 g which had been fasted for 15 hours were divided into groups of 4 rats each. The rats were orally administered a different test compound in a dose of 100 mg/kg, and 30 minutes after the administration, orally administered ethanol in a dose of 6 g/kg. Twenty-four hours after the administration of ethanol, the liver of each rat was taken out and neutral lipid level in the liver was measured in a conventional manner to calculate the ratio of preventing an increase in triglyceride content in the liver. For a control group, ethanol and, for the other control group, a glucose aqueous solution equivalent in calorific value to the same amount of ethanol were used and the same manner as those of test groups, and for the positive control group, commercially available 2-mercaptopropionylglycine was used instead of the test compound.
*The % prevention was calculated by the following

lymphocites = assay: Activity for Promoting Blastogenesis of Lymphocites (in vivo); parameters: species or system Wistar-Imamichi strain male rats
Procedure: In this Experiment, influence of the test compound disodium salt of N-2'-carboxyphenyl-4-chloroanthranilic acid on blastogenesis of lymphocites was studied by the use of spleen cells and lymphonoid cells of mouse and rat. For in vitro test, C3 H/He strain male mice and for in vivo Wistar-Imamichi strain male rats were used respectively. Concanavallin A manufactured by Sigma was used as the blastogenetic factor in the in vitro test and lymphocites were cultured by the use of medium of RPMI 1640 manufactured by Grand Island Biological Co. The cultivation of the lymphocites was carried out in the medium at 37° C in a 5% carbon dioxide atmosphere for about 48 hours and after the addition of 0.5 μCi/ml of ^3 H-thymidine, the cells in the medium were incubated for 16 hours and then the lymphocites were separated. The radioactivity of the separated cells was measured by a scintillation counter and the value was evaluated as an indicator of blastogenetic degree. For the in vivo test, the in vitro test was repeated except that each rat was orally administered with the test compound in a dose of 5 or 50 mg/kg. In this case, the rats administered with the test compound were divided into groups of 3 members each and the cells to be cultivated from the rats in each group were placed under the same cultivation conditions. The results of the experiments are shown in FIG. 4 (in vitro) and FIG. 5 (in vivo), respectively.

[2] = tested on: Pseudomonas aeruginosa Pa-II; assay: Activity for Protecting from Infection by Bucillus Pyocyaneous; type: in vivo; conditions: oral 2 mg/head; for Survival Terms: individual animals
Text: As test animals, ddY strain male mice (5 week old) which were divided into groups of 7 members each were used. Each mouse was intraperitoneally inoculated with bucillus pyocyaneous, Pseudomonas aeruginosa Pa-II.

antibody in blood = assay: Titer of antibody in blood of cortisone-treated mice (hemolysing method); type: in vivo, IV CS strain male mice
Procedure: as §1
* Titer of antibody in blood is indicated by a dilution degree of 50%

[3] = tested on: Salmonella enteritidis TO-1; assay: Activity for Protecting from Infection by Salmonellae, with streptomycine; type: in vivo; conditions: mouse; oral 2 mg/head; with streptomycine 0.5 mg/head s.c.
Procedure: As test animals, ddY strain male mice (5 week old) which were divided into groups of 7 members each were used. Each mouse was intraperitoneally inoculated with 10^5 Salmonella enteritidis TO-1, and 3 hours after the inoculation, was subcutaneously administered one shot of streptomycine in a dose of 0.5 mg/head.

[4] = tested on: Pseudomonas aeruginosa Pa-II; assay: Activity for Protecting from Infection by Bucillus Pyocyaneous, with carbenicillin; type: in vivo; conditions: mouse; with carbenicillin
Procedure: As test animals, ddY strain male mice (5 week old) which were divided into groups of 9 members each were used. Each mouse was intraperitoneally administered with 10^6 Pseudomonas aeruginosa Pa-II, and 1.5 hours after the administeration, subcutaneously administered one shot of carbenicillin, an antibiotic. The test compound, disodium salt of N-2'-carboxyphenyl-4-chloroanthranilic acid, was orally administered once a day in a dose of 2 mg/head one and two days before the inoculation, respectively. The activity of the test compound was evaluated by observing the test animals for 54 hours after the inoculation.

neutrocyte = assay: Activity for Improving Bacteriocidal Ability in Neutrocyte (NBT test); type: in vivo, JW/CSK strain white male rabbits; conditions: rabbit, oral 100 mg/kg
Procedure: As test animals, JW/CSK strain white male rabbits weighing 3.0 - 3.9 kg were used, dividing them into groups of 5 members each. Each rabbit was orally administered with the test compound, disodium salt of N-2'-carboxyphenyl-4-chloroanthranilic acid in a dose of 100 mg/kg, and 24 hours after the administration, neutrocyte in the blood of the peripheral vessels were reacted with nitrobluetetrazorium (NBT) and then the proportion of cells positive to formazan was measured by a microscope. As the control, the value obtained from the same animal just 3 days before the administration of the test compound was referred to.

O=C(O)c1ccccc1Nc1cc(Cl)ccc1C(=O)O [disodium salt of N-2'-carboxyphenyl-4-chloroanthranilic acid]
volume of hind paws (Adjuvant arthritis; 0.1 mg/kg oral, day 24 after the sensitization): 3.524 ± 0.170 mL
volume of hind paws (Adjuvant arthritis; 0.1 mg/kg oral, day 31 after the sensitization): 3.762 ± 0.216 mL
volume of hind paws (Adjuvant arthritis; 1 mg/kg oral, day 24 after the sensitization): 3.214 ± 0.161 mL
volume of hind paws (Adjuvant arthritis; 1 mg/kg oral, day 31 after the sensitization): 3.289 ± 0.223 mL
volume of hind paws (Adjuvant arthritis; 5 mg/kg oral, day 24 after the sensitization, ** P<0.01): 3.175 ± 0.100 mL
volume of hind paws (Adjuvant arthritis; 5 mg/kg oral, day 31 after the sensitization, * P<0.05): 3.102 ± 0.141 mL
volume of hind paws (Adjuvant arthritis; 10 mg/kg oral, day 24 after the sensitization, ** P<0.01): 3.027 ± 0.126 mL
volume of hind paws (Adjuvant arthritis; 10 mg/kg oral, day 31 after the sensitization, * P<0.05): 3.121 ± 0.176 mL
volume of hind paws (Adjuvant arthritis; 100 mg/kg oral, day 24 after the sensitization): 3.350 ± 0.168 mL
volume of hind paws (Adjuvant arthritis; 100 mg/kg oral, day 31 after the sensitization): 3.482 ± 0.170 mL
activity for treating adjuvant arthritis of rat (Adjuvant arthritis; 5 or 10 mg/kg oral): significant level of activity
number of PFC [1]: significantly increased
% Prevention (of increase in triglyceride content in the liver) (triglyceride in liver): 63.6%
degree of promotion (S.I. value) of blastogenesis (lymphocites; rat, oral 5 or 50 mg/kg, one day before Concanavallin A): about twice as large as that of the control
activity of Concanavallin A (lymphocites; rat, oral 5 or 50 mg/kg, one day before Concanavallin A, vs control): increased to about double
improvement of the activity of Concanavallin A (lymphocites; rats or mice, four days before Concanavallin A): the improvement of the activity was observed
Survival Terms ([2]; 2 × 10^4 bacteria/head, mouse, S: survival at 54 hours): S,S,S,S,S and S,S
Dead Animal/Test Animal ([2]; 2 × 10^4 bacteria/head, control 1/7): 0/7
activity for protecting from the bacterial infection ([2]; 2 × 10^5 bacteria per head): activity of the test compound for protecting from the bacterial infection was observed
Survival Terms ([2]; 2 × 10^5 bacteria/head, mouse, S: survival at 54 hours): S,S
Dead Animal/Test Animal ([2]; 2 × 10^5 bacteria/head, control 6/7): 1/7
Survival Terms ([2]; 2 × 10^6 bacteria/head, mouse): 29,29 hours
Dead Animal/Test Animal ([2]; 2 × 10^6 bacteria/head, control 7/7): 7/7
effect on bacillary toxin ([2]; mouse): acts to lower the bacillary toxin
Titer of Antibody (dilution degree of 50% hemolysis) (antibody in blood; Cortisone + Test Compound (10 mg/kg)): 10^10
Titer of Antibody (dilution degree of 50% hemolysis) (antibody in blood; Cortisone + Test Compound (50 mg/kg)): 10^6
bacteriocidal activity of the antibiotic with the test compound [3]: improved bacteriocidal activity
bacteriocidal activity of the antibiotic with the test compound [4]: improved bacteriocidal activity
proportion of neutrocyte cells positive to formazan (neutrocyte): significantly increased
NBT Value (neutrocyte; 24 h after, before treatment 11.4 ± 1.8, P<0.05, Average ± Standard Deviation): 33.3 ± 7.8%
